Consider 33 compounds from patent US7732609B2, “5-(arylsulfonyl)-pyrazolopiperidines” (Elan Pharmaceuticals, Inc., priority 2005, dated 2010).

The target of the assay is T1, gamma-secretase (Homo sapiens, UniProt P49768).
T1 construct: The assay used a partially purified extract of IMR-32 cell membranes as the gamma-secretase enzyme preparation; endogenous in cells; host or cells: IMR-32 cell membranes (partially purified extract)
Nature of the assay: Gamma-secretase APP enzyme assay (MBP-C125 Swe cleavage at Aβ40 site, sandwich ELISA). Type of assay: biochemical. As to conditions: IMR-32 cell membrane extract as enzyme; MBP-C125swe substrate; 2 h at 37° C; read-out: γAPP. The text has this:
The gamma-secretase APP enzyme assay was designed to measure the specific proteolytic cleavage of an APP substrate (MBP-C125 Swe fusion protein) at the Aβ40 site. The assay used a partially purified extract of IMR-32 cell membranes as the gamma-secretase enzyme preparation and a recombinant fusion protein containing the C-terminal 125 amino acids of the Swedish variant of the APP (MBP-C125swe) as the substrate. This assay involved two steps beginning with the enzymatic reaction generating a cleavage product that was captured with an immobilized antibody specific for the neo-epitope Aβ40 site. The captured cleavage product was then detected in a sandwich ELISA assay with a biotinylated reporter antibody that is specific to Aβ (17-28). Streptavidin-linked alkaline phosphatase was then added that would generate a fluorescent signal proportional to the amount of cleavage product. This assay was used to discover small molecule inhibitors of gamma-secretase.
Briefly, a 149 mg/ml solution of BIGCHAP detergent was made with water at 42° C. and then rotated for 30 minutes at the same temperature. This warmed solution of BigCHAPS(N,N-Bis(3-D-gluconamidopropyl)cholamide) detergent was used to dissolve Brain Extract Type-V (lipid containing a minimum of 40% phosphatidylethanolamine) from Sigma (St. Louis, Mo.) to a concentration of 8 mg/ml. This solution containing BigCHAPS and lipid at 8 mg/ml is then diluted to 0.53 mg/ml lipid with a pre-warmed solution of Hepes and sodium chloride. This final solution containing Hepes buffer, sodium chloride, BigCHAPS detergent and lipid is used to create working solutions of both gamma-secretase (25 Units) and the MBP-C125 substrate (0.05 mg/ml).
Gamma-secretase was then added to a 96-well micro-titre plate and then incubated with various concentrations of inhibitor for 30 minutes at 37° C. MBPC125 substrate was then added to initiate the reaction that would run for two hours at 37° C. The reaction was quenched with the addition of SDS to a final concentration of 0.1% and then 100 μl of the reaction mixture was transferred to a capture ELISA plate and incubated overnight at 4° C. Detection of the cleavage product was performed using a standard sandwich ELISA assay and quantified using a six point standard curve.
For orientation: In an ELISA, binding on a coated surface is turned into a signal by an enzyme label.

As for `CC[C@H]1Cc2n[nH]cc2[C@@H](CC)N1S(=O)(=O)c1ccc(Cl)cc1` [(4R,6S)-5-(4-chlorophenylsulfonyl)-4,6-diethyl-4,5,6,7-tetrahydro-1H-pyrazolo[4,3-c]pyridine], the IC50 is below 50 nM.
As for `O=S(=O)(c1ccc(Cl)cc1)N1Cc2cn[nH]c2CC1c1cccc(F)c1` (stereo not drawn) [5-(4-chlorophenylsulfonyl)-6-(3-fluorophenyl)-4,5,6,7-tetrahydro-1H-pyrazolo[4,3-c]pyridine], the figure is below 50 nM; as for `O=S(=O)(c1ccc(Cl)cc1)N1Cc2cn[nH]c2CC1c1ccc(F)cc1` (stereo not drawn) [5-(4-chlorophenylsulfonyl)-6-(4-fluorophenyl)-4,5,6,7-tetrahydro-1H-pyrazolo[4,3-c]pyridine], below 50 nM; as for `O=S(=O)(c1ccc(Cl)cc1)N1Cc2c[nH]nc2CC1c1cc(F)cc(F)c1` (stereo not drawn) [5-(4-chlorophenylsulfonyl)-6-(3,5-difluorophenyl)-4,5,6,7-tetrahydro-1H-pyrazolo[4,3-c]pyridine], below 50 nM.
With `O=S(=O)(c1ccc(Cl)cc1)N1Cc2c[nH]nc2CC1c1ccccc1` (stereo not drawn) [5-(4-chlorophenylsulfonyl)-6-phenyl-4,5,6,7-tetrahydro-1H-pyrazolo[4,3-c]pyridine] the figure was below 50 nM; with `CC[C@@H]1Cc2[nH]ncc2[C@H](CC)N1S(=O)(=O)c1ccc(Cl)cc1` [(4S,6R)-5-(4-chlorophenylsulfonyl)-4,6-diethyl-4,5,6,7-tetrahydro-1H-pyrazolo[4,3-c]pyridine], 50 to 150 nM.
With `CN(C)C(=O)OC[C@@H]1c2cnn(C(=O)N(C)C)c2CCN1S(=O)(=O)c1ccc(Cl)cc1` [(S)-(5-(4-chlorophenylsulfonyl)-1-(dimethylcarbamoyl)-4,5,6,7-tetrahydro-1H-pyrazolo[4,3-c]pyridin-4-yl)methyl dimethylcarbamate] the figure was 150 to 300 nM.
On to `O=S(=O)(c1ccc(Cl)cc1)N1Cc2cccnc2CC1c1ccc(Cl)cc1` (stereo not drawn) [7-(4-chlorophenyl)-6-(4-chlorophenylsulfonyl)-5,6,7,8-tetrahydro-1,6-naphthyridine], for which the IC50 was in the range of 150 to 300 nM.
In the case of `CC[C@H]1Cc2[nH]ncc2[C@@H](CC)N1S(=O)(=O)c1ccccn1` [(4R,6S)-4,6-diethyl-5-(pyridin-2-ylsulfonyl)-4,5,6,7-tetrahydro-1H-pyrazolo[4,3-c]pyridine], the IC50 was 50 to 150 nM.
As for `O=S(=O)(c1ccc(Cl)cc1)N1Cc2cn[nH]c2CC1CO` (stereo not drawn) [(5-(4-chlorophenylsulfonyl)-4,5,6,7-tetrahydro-1H-pyrazolo[4,3-c]pyridin-6-yl)methanol], the figure is 150 to 300 nM; as for `CC[C@@H]1Cc2[nH]ncc2[C@@H](COC(=O)N(C)C)N1S(=O)(=O)c1ccc(Cl)cc1` [((4S,6R)-5-(4-chlorophenylsulfonyl)-6-ethyl-4,5,6,7-tetrahydro-1H-pyrazolo[4,3-c]pyridin-4-yl)methyl dimethylcarbamate], 150 to 300 nM; as for `C[C@@H]1c2cn[nH]c2C[C@H](C)N1S(=O)(=O)c1ccc(Cl)cc1` [(4R,6S)-5-(4-chlorophenylsulfonyl)-4,6-dimethyl-4,5,6,7-tetrahydro-1H-pyrazolo[4,3-c]pyridine], below 50 nM.
With `CC(C)C1Cc2n[nH]cc2CN1S(=O)(=O)c1ccc(Cl)cc1` (stereo not drawn) [5-(4-chlorophenylsulfonyl)-6-isopropyl-4,5,6,7-tetrahydro-1H-pyrazolo[4,3-c]pyridine] the figure was below 50 nM.
As to `CC[C@H]1Cc2n[nH]cc2[C@@H](CC)N1S(=O)(=O)c1ccc(F)cc1` [(4R,6S)-4,6-diethyl-5-(4-fluorophenylsulfonyl)-4,5,6,7-tetrahydro-2H-pyrazolo[4,3-c]pyridine], the IC50 was below 50 nM.
As to `CC[C@@H]1c2cn[nH]c2/C(=N\O)[C@H](CC)N1S(=O)(=O)c1ccc(Cl)cc1` [(4R,6S,Z)-5-(4-chlorophenylsulfonyl)-4,6-diethyl-5,6-dihydro-1H-pyrazolo[4,3-c]pyridin-7(4H)-one oxime], the IC50 is 50 to 150 nM.
With `O=S(=O)(c1ccc(Cl)cc1)N1CCc2[nH]ncc2C1c1nc2ccccc2[nH]1` (stereo not drawn) [4-(1H-Benzoimidazol-2-yl)-5-(4-chloro-benzenesulfonyl)-4,5,6,7-tetrahydro-1H-pyrazolo[4,3-c]pyridine] the figure was 150 to 300 nM; with `O=S(=O)(c1ccc(Cl)s1)N1Cc2cn[nH]c2CC1c1ccccc1` (stereo not drawn) [5-(5-chlorothiophen-2-ylsulfonyl)-6-phenyl-4,5,6,7-tetrahydro-1H-pyrazolo[4,3-c]pyridine], below 50 nM; with `O=S(=O)(c1ccc(Cl)cc1)N1CCc2ncccc2C1c1ccc(Cl)cc1` (stereo not drawn) [5-(4-chlorophenyl)-6-(4-chlorophenylsulfonyl)-5,6,7,8-tetrahydro-1,6-naphthyridine], below 50 nM.
As for `CC[C@H]1c2cn[nH]c2C[C@@H](COC(=O)N(C)C)N1S(=O)(=O)c1ccc(Cl)cc1` [((4S,6S)-5-(4-chlorophenylsulfonyl)-4-ethyl-4,5,6,7-tetrahydro-1H-pyrazolo[4,3-c]pyridin-6-yl)methyl dimethylcarbamate], the figure is below 50 nM; as for `CC[C@H]1Cc2n[nH]cc2[C@@H](c2ccc(Cl)cc2)N1S(=O)(=O)c1ccc(Cl)cc1` [(4R,6S)-4-(4-chlorophenyl)-5-(4-chlorophenylsulfonyl)-6-ethyl-4,5,6,7-tetrahydro-1H-pyrazolo[4,3-c]pyridine], below 50 nM; as for `O=S(=O)(c1ccc(Cl)cc1)N1Cc2c(C(F)(F)F)n[nH]c2CC1c1ccc(Cl)cc1` (stereo not drawn) [6-(4-chlorophenyl)-5-(4-chlorophenylsulfonyl)-3-(trifluoromethyl)-4,5,6,7-tetrahydro-1H-pyrazolo[4,3-c]pyridine], 150 to 300 nM.
With `CC[C@H]1Cc2[nH]ncc2[C@@H](COC(=O)N(C)C)N1S(=O)(=O)c1ccc(Cl)cc1` [((4S,6S)-5-(4-chlorophenylsulfonyl)-6-ethyl-4,5,6,7-tetrahydro-1H-pyrazolo[4,3-c]pyridin-4-yl)methyl dimethylcarbamate] the figure was 150 to 300 nM; with `O=S(=O)(c1ccc(Cl)cc1)N1Cc2c[nH]nc2CC1Cc1ccccc1` (stereo not drawn) [6-benzyl-5-(4-chlorophenylsulfonyl)-4,5,6,7-tetrahydro-1H-pyrazolo[4,3-c]pyridine], 50 to 150 nM; with `CC[C@@H]1c2cn[nH]c2C(=O)[C@H](CC)N1S(=O)(=O)c1ccc(Cl)cc1` [(4R,6S)-5-(4-chlorophenylsulfonyl)-4,6-diethyl-5,6-dihydro-1H-pyrazolo[4,3-c]pyridin-7(4H)-one], below 50 nM.
For the compound `C[C@H]1Cc2[nH]ncc2[C@H](C)N1S(=O)(=O)c1ccc(Cl)cc1` [(4S,6S)-5-(4-chlorophenylsulfonyl)-4,6-dimethyl-4,5,6,7-tetrahydro-1H-pyrazolo[4,3-c]pyridine], the IC50 is below 50 nM.
With `CC[C@@H]1c2c[nH]nc2C[C@H](c2ccc(Cl)cc2)N1S(=O)(=O)c1ccc(Cl)cc1` [(4R,6R)-6-(4-chlorophenyl)-5-(4-chlorophenylsulfonyl)-4-ethyl-4,5,6,7-tetrahydro-1H-pyrazolo[4,3-c]pyridine], the IC50 is below 50 nM.
As for `O=S(=O)(c1ccc(Cl)cc1)N1Cc2c[nH]nc2CC1c1nccs1` (stereo not drawn) [2-(5-(4-chlorophenylsulfonyl)-4,5,6,7-tetrahydro-2H-pyrazolo[4,3-c]pyridin-6-yl)thiazole], the figure is 150 to 300 nM; as for `CN(C)C(=O)OC[C@@H]1c2cn[nH]c2CCN1S(=O)(=O)c1ccc(Cl)cc1` [(S)-(5-(4-chlorophenylsulfonyl)-4,5,6,7-tetrahydro-1H-pyrazolo[4,3-c]pyridin-4-yl)methyl dimethylcarbamate], 150 to 300 nM.
With `CCC1c2cn[nH]c2CC(CO)N1S(=O)(=O)c1ccc(Cl)cc1` (stereo not drawn) [5-(4-chlorophenylsulfonyl)-4-ethyl-4,5,6,7-tetrahydro-1H-pyrazolo[4,3-c]pyridin-6-yl)methanol] the figure was below 50 nM; with `CCOC(=O)C1c2cn[nH]c2CC(CC)N1S(=O)(=O)c1ccc(Cl)cc1` (stereo not drawn) [ethyl 5-(4-chlorophenylsulfonyl)-6-ethyl-4,5,6,7-tetrahydro-1H-pyrazolo[4,3-c]pyridine-4-carboxylate], below 50 nM.
“(4S,6R)-diethyl 5-(4-chlorophenylsulfonyl)-4,5,6,7-tetrahydro-1H-pyrazolo[4,3-c]pyridine-4,6-dicarboxylate”: the IC50 lay in the range of 50 to 150 nM.
In the case of `O=S(=O)(c1ccc(Cl)cc1)N1[C@@H](CO)Cc2[nH]ncc2[C@H]1CO` [((4S,6R)-5-(4-chlorophenylsulfonyl)-4,5,6,7-tetrahydro-1H-pyrazolo[4,3-c]pyridine-4,6-diyl)dimethanol], the IC50 was 150 to 300 nM.
As for `CC[C@@H]1C(=O)c2[nH]ncc2[C@H](CC)N1S(=O)(=O)c1ccc(Cl)cc1` [(4S,6R)-5-(4-chlorophenylsulfonyl)-4,6-diethyl-5,6-dihydro-1H-pyrazolo[4,3-c]pyridin-7(4H)-one], the figure is 150 to 300 nM.
